Data on ten molecules can be found in patent US12350270B2, “Antimalarial agents” (Merck Sharp & Dohme LLC, priority 2019, dated 2025).

The test concerns parasites (ring stage, in human red blood cell culture). As to the kind of experiment: Parasite LDH growth assay (antiparasite potency, Parasite Assay). The test is classed as cell-based, Plasmodium falciparum. The note with it: Plasmodium falciparum, Erythrocyte, 72 h, 0.7% rings, 2% haematocrit, 72 hours at 37° C., LDH readout of parasite growth. In short, it runs like this:
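Ring-stage parasites at 0.7% parasitemia and 2% haematocrit, in RPMI-Hepes/bicarbonate with 5% heat-inactivated human serum and 0.5% albumax, were added to compound-containing medium. Cultures grew 72 h at 37 °C in gassed humidified boxes. Plates were then frozen overnight at −80 °C, thawed 4 h, and growth was measured by LDH assay.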
Molecule `CC[C@]1(C)CC(=O)N([C@@H]2CCOc3ccc(C(=O)N[C@@H]4c5cc(Cl)ccc5OC[C@@]4(C)O)cc32)C(=N)N1` [Example 230, (4R)-N-[(3S,4R)-6-chloro-3-hydroxy-3-methyl-chroman-4-yl]-4-[(4R)-4-ethyl-2-imino-4-methyl-6-oxo-hexahydropyimidin-1-yl]chromane-6-carboxamide] registered an EC50 of 2.7 nM. That is a single-digit nanomolar value.

`CCC1(CC)CC(=O)N([C@@H]2CCOc3ccc(C(=O)N[C@@H]4c5cc(Cl)ccc5OC[C@H]4O)cc32)C(=N)N1` [Example 231, (4R)-N-[(3S,4R)-6-chloro-3-hydroxy-chroman-4-yl]-4-(4,4-diethyl-2-imino-6-oxo-hexahydropyrimidin-1-yl)chromane-6-carboxamide] had an EC50 of 7.4 nM.

With `CC[C@]1(C)CC(=O)N([C@H]2c3cc(C(=O)N[C@@H]4c5ccccc5C(F)(F)[C@H]4O)ccc3OC[C@@H]2OC)C(=N)N1` [Example 232, (3R,4S)-N-[(1R,2S)-3,3-difluoro-2-hydroxy-indan-1-yl]-4-[(4R)-4-ethyl-2-imino-4-methyl-6-oxo-hexahydropyrimidin-1-yl]-3-methoxy-chromane-6-carboxamide], the response was half-maximal at 21.8 nM (EC50).

For `CCC1(CC)CC(=O)N([C@@H]2CCOc3ccc(C(=O)NC(CC4CCCCC4)c4ccccc4)cc32)C(=N)N1` (stereo partly drawn) [Example 233, (4R)-N-(2-cyclohexyl-1-phenyl-ethyl)-4-(4,4-diethyl-2-imino-6-oxo-hexahydropyrimidin-1-yl)chromane-6-carboxamide], the EC50 was determined as 7.9 nM.

As for `CCC1(CC)CC(=O)N([C@H]2c3cc(C(=O)N[C@@H]4c5ccccc5C[C@@]4(C)O)ccc3OC[C@H]2COC)C(=N)N1` [Example 235, (3R,4R)-4-(4,4-diethyl-2-imino-6-oxo-hexahydropyrimidin-1-yl)-N-[(1R,2R)-2-hydroxy-2-methyl-indan-1-yl]-3-(methoxymethyl)chromane-6-carboxamide], a half-maximal effect (EC50) was put at 0.7 nM.

Turning to `CCC1(CC)CC(=O)N([C@@H]2C[C@@H](OC)c3ccc(C(=O)N[C@@H]4c5ccccc5OC(C)(C)[C@H]4O)cc32)C(=N)N1` [Example 236, (1R,3R)-3-(4,4-diethyl-2-imino-6-oxo-hexahydropyrimidin-1-yl)-N-[(3S,4R)-3-hydroxy-2,2-dimethyl-chroman-4-yl]-1-methoxy-indane-5-carboxamide], the EC50 amounted to 0.9 nM. This EC50 and that of the molecule before are within 1.5-fold of each other.

Molecule `CCC1(CC)CC(=O)N([C@H]2C[C@H](OC)c3ccc(C(=O)N[C@@H]4c5ccccc5OC(C)(C)[C@H]4O)cc32)C(=N)N1` [Example 237, (1S,3S)-3-(4,4-diethyl-2-imino-6-oxo-hexahydropyrimidin-1-yl)-N-[(3S,4R)-3-hydroxy-2,2-dimethyl-chroman-4-yl]-1-methoxy-indane-5-carboxamide] gave an EC50 of 240 nM.

For the molecule `CCC1(CC)CC(=O)N([C@H]2C[C@@H](OC)c3ccc(C(=O)N[C@@H]4c5ccccc5OC(C)(C)[C@H]4O)cc32)C(=N)N1` [Example 238, (1R,3S)-3-(4,4-diethyl-2-imino-6-oxo-hexahydropyrimidin-1-yl)-N-[(3S,4R)-3-hydroxy-2,2-dimethyl-chroman-4-yl]-1-methoxy-indane-5-carboxamide], the half-maximal effective concentration (EC50) was 47.8 nM. Against the preceding molecule, the EC50 is about 5-fold lower.

In the case of `CCC1(CC)CC(=O)N([C@@H]2C[C@H](OC)c3ccc(C(=O)N[C@@H]4c5ccccc5OC(C)(C)[C@H]4O)cc32)C(=N)N1` [Example 239, (1S,3R)-3-(4,4-diethyl-2-imino-6-oxo-hexahydropyrimidin-1-yl)-N-[(3S,4R)-3-hydroxy-2,2-dimethyl-chroman-4-yl]-1-methoxy-indane-5-carboxamide], the EC50 is 0.9 nM.

As to `CCC1(CC)CC(=O)N([C@H]2c3cc(C(=O)N[C@@H]4c5ccccc5OC(C)(C)[C@H]4O)ccc3OC[C@@H]2C)C(=N)N1` [Example 240, (3R,4R)-4-(4,4-diethyl-2-imino-6-oxo-hexahydropyrimidin-1-yl)-N-[(3S,4R)-3-hydroxy-2,2-dimethyl-chroman-4-yl]-3-methyl-chromane-6-carboxamide], the EC50 is 0.6 nM. Against the preceding molecule, the EC50 is about 1.5-fold lower.
